Assay results reported in US11974969B2, “Artificially synthesized sphingosine derivative lipoid monomer and use of same for delivering nucleic acid” (INSTITUTE OF BASIC MEDICAL SCIENCES CHINESE ACADEMY OF …, priority 2018, dated 2024).

System: HEK293T cells
Test: Flow cytometry (CFlow): delivery of FAM-labeled single-stranded PGY-sRNA-6 into HEK293T cells by different concentrations of single sphingosine derivative (Example 1)
Format: cell-based, human
Conditions: for delivery of single-stranded PGY-sRNA-6 into 293T cells (fluorescence shift compared to free uptake group): different concentrations: 3.75, 12.5, 37.5 μg single lipid, 0.1 nmol FAM-labeled sRNA, final 100 nM, 9 hours, flow cytometry; for Lipid delivery group (different concentrations of lipids) 3.75 μg/mL: single sphingosine derivative 3.75 μg/mL; for Lipid delivery group (different concentrations of lipids) 3.75 μg/mL / Lipid delivery group (different concentrations of lipids) 12.5 μg/mL / Lipid delivery group (different concentrations of lipids) 37.5 μg/mL: FAM-labeled PGY-ssRNA-6 100 nM, 293T cells, fluorescence shift by flow cytometry; for Lipid delivery group (different concentrations of lipids) 12.5 μg/mL: single sphingosine derivative 12.5 μg/mL; for Lipid delivery group (different concentrations of lipids) 37.5 μg/mL: single sphingosine derivative 37.5 μg/mL
Procedure: 2.1 5 μl of small RNA (Ribobio, 20 μM, as shown in Table 2) and 95 μL of DEPC (Sigma) treated water were added into a 1.5 ml EP tube and mixed well. Then a certain amount of single lipid or lipid composition in chloroform solution (as shown in Table 1) was added and fully mixed by sucking and blowing;
2.2 The system was fully mixed and was heated in a water bath at 90° C. for 15 minutes;
2.3 The system was taken out and cooled down to room temperature.
4.3 The human embryonic kidney cell line HEK293T and human monocyte THP-1 cells used in the experiment were cultured to logarithmic growth phase, and then plated into 12-well plates with a cell density of 6×10^5/1 mL medium/well. The 12-well plate (1 mL medium/well) was incubated overnight (12 h) at 37° C., followed by subsequent experiments.
4.4 The experiment groups were as follows: • 1) Naïve group: untreated cells. This group served as a blank control group. • 2) Free uptake group: […] of 5′-FAM labeled small RNA solution (storage concentration is 20 μM) was directly added. This group served as a negative control group; • 3) Lipid nucleic acid mixture treatment group: The mixture of the lipid prepared in step 2 and the 5′-FAM-labeled small RNA was added into the cells and mixed well. The final concentration of small RNA is 100 nM.
4.5 After co-incubation with cells for 6 h/9 h, the cells were washed three times with PBS. The cells were re-suspended with PBS (self-prepared). The flow cytometer Accuri® C6 instrument (purchased from BD, US) was used to detect the fluorescence intensity of the cells in the sample wells. Implementation method: the software CFlow Plus used in the flow cytometer Accuri® C6 instrument detection was opened, the instrument was washed with cleaning solution for 3 minutes, and then washed with double-distilled water for 5 minutes. The injection of blank group samples was started while setting the number of cells unlimited. The injection of Naïve group samples was stopped when the number of cells detected was 10000 events. The live cell group in the fluorescence spectrum (abscissa: FSC-A, ordinate: SSC-A) was circled as gate P1. With the number of cells set as limited, the detection was stopped when the number of cells in gate P1 reached 10000 events. The fluorescence shift value was obtained in the fluorescence spectrum (abscissa: fluorescence channel FLA-1, ordinate: SSC-A).
1) Conditions of the boiling method: to 100 μL FAM-labeled single-stranded PGY-sRNA-6 solution was added corresponding amount of lipid solution, and heated at 90° C. for 15 min;
2) Experimental conditions: the final concentration of small RNA was 100 nM. 9 hours after being added to the cells, the amount of single-stranded PGY-sRNA-6 that entered into the cells was compared by detecting the fluorescence shift using flow cytometry technology. For the detailed protocols, see “Flow cytometry technology (CFlow) determined the uptake amount of nucleic acid that is delivered into cells by lipid”. All experiments were performed in triplicates.

Structure (SMILES) | delivery of single-stranded PGY-sRNA-6 into 293T cells (fluorescence shift compared to free uptake group) | Lipid delivery group (different concentrations of lipids) 3.75 μg/mL | Lipid delivery group (different concentrations of lipids) 12.5 μg/mL | Lipid delivery group (different concentrations of lipids) 37.5 μg/mL
CCCCCCCCCCCCC/C=C/[C@@H](O)[C@@H](N)CO[C@@H]1O[C@H](CO)[C@@H](O)[C@H](O)[C@H]1O [So-49, 1-β-D-Glucosylsphingosine (synthetic)] | deliver | 0.50% | 1.70% | 7.40%
CCCCCCCCCCCCC/C=C/[C@@H](O)[C@H](CO)NC(=O)CCCCCCCCCCC [So-13, N-Lauroyl-D-erythro-Sphingosine] | deliver | 3.40% | 3.20% | 5.20%
CCCCCCCCCC(=O)C(N)CO.Cl (stereo not shown) [So-72, 2-amino-1-hydroxy-3-dodecanone, monohydrochloride] | deliver | 2.40% | 3.40% | 14.10%
CCCCCCCCCCCCCCCCCC(=O)N[C@@H](CO)[C@H](O)CCCCCCCCCCCCCCC [So-9, N-octadecanoyl-D-erythro-Dihydrosphingosine] | deliver | 3.30% | 2.60% | 2.70%
